In patent US10570131B2, “Heterocyclic compounds and their use in preventing or treating bacterial infections” (MUTABILIS, priority 2015, dated 2020):

Legend:
[1] = target: T1, CTX-M-15 (Escherichia coli, UniProt Q9EXV5); experiment: β-lactamase inhibitory activity, IC50 (nitrocefin hydrolysis); type: biochemical
T1 construct: made in house; host or cells: E. coli expression vector
Experimental: (§1) Method 1: β-lactamase Inhibitory Activity, Determination of IC50 (Table 1)
(§2) Enzyme activity was monitored by spectrophotometric measurement of nitrocefin (NCF—TOKU-E, N005) hydrolysis at 485 nm, at room temperature and in assay buffer A: 100 mM Phosphate pH7, 2% glycerol and 0.1 mg/mL Bovine serum albumin (Sigma, B4287). Enzymes were cloned in E. coli expression vector, expressed and purified in house using classical procedures. To a transparent polystyrene plate (Corning, 3628) were added in each well 5 μL DMSO or inhibitor dilutions in DMSO and 80 μL enzyme in buffer A. Plates were immediately read at 485 nm in a microplate spectrophotometer (BioTek, PowerWave HT) to enable background subtraction. After 30 min of pre-incubation at room temperature, 15 μL of NCF (200 μM final) were finally added in each well. Final enzyme concentrations were 0.1 nM (TEM-1), 0.075 nM (SHV-1), 0.4 nM (CTX-M-15), 1 nM (KPC-2), 0.2 nM (P99 AmpC), 0.2 nM (CMY-37), 0.4 nM (AmpC P. aeruginosa), 0.2 nM (OXA-1), 1.2 nM (OXA-11), 0.4 nM (OXA-15) and 0.3 nM (OXA-48). After 20 min incubation at room temperature, plates were once again read at 485 nm. Enzyme activity was obtained by subtracting the final signal by the background, and was converted to enzyme inhibition using non inhibited wells. IC50 curves were fitted to a classical Langmuir equilibrium model with Hill slope using XLFIT (IDBS).

[2] = target: T2, KPC-2 (Klebsiella pneumoniae, UniProt Q9F663); experiment: as above; type: biochemical
T2 construct: made in house; host or cells: E. coli expression vector
Experimental: as §1, §2

[3] = target: T3, OXA-1 (Escherichia coli, UniProt P13661); experiment: as above; type: biochemical
T3 construct: made in house; host or cells: E. coli expression vector
Experimental: as §1, §2

[4] = target: T4, OXA-11 (Pseudomonas aeruginosa, UniProt Q06778); experiment: as above; type: biochemical
T4 construct: made in house; host or cells: E. coli expression vector
Experimental: as §1, §2

[5] = target: T5, OXA-48 (Klebsiella pneumoniae, UniProt Q6XEC0); experiment: as above; type: biochemical
T5 construct: made in house; host or cells: E. coli expression vector
Experimental: as §1, §2

[6] = target: T6, SHV-1 (Klebsiella pneumoniae, UniProt P0AD64); experiment: as above; type: biochemical
T6 construct: made in house; host or cells: E. coli expression vector
Experimental: as §1, §2

[7] = target: T7, TEM-1 (Escherichia coli, UniProt P62593); experiment: as above; type: biochemical; settings: class (A); 30 min pre-incubation; NCF 200 μM
T7 construct: made in house; host or cells: E. coli expression vector
Experimental: as §1, §2

[8] = target: T8, AmpC (PAE) (Pseudomonas aeruginosa, UniProt P24735); experiment: biochemical; design: species or system P. aeruginosa
T8 construct: made in house; host or cells: E. coli expression vector
Experimental: as §1, §2

[9] = target: T9, AmpC (P99) (Enterobacter cloacae, UniProt P05364); experiment: biochemical
T9 construct: made in house; host or cells: E. coli expression vector
Experimental: as §1, §2

[10] = target: T10, OXA-15 (Pseudomonas aeruginosa, UniProt Q51574); experiment: biochemical
T10 construct: made in house; host or cells: E. coli expression vector
Experimental: as §1, §2

[11] = test system: E. cloacae P99; experiment: MIC of compounds alone, broth microdilution; type: cell-based; settings: Enterobacter cloacae; strain P99 (AmpC); read-out: MIC compounds of the invention alone
Experimental: (§3) Compounds of the present invention were assessed against genotyped bacterial strains alone or in combination with the β-lactam ceftazidime (CAZ). […] Briefly, compounds alone according to the invention were prepared in DMSO and spotted (2 μL each) on sterile polystyrene plates (Corning, 3788). […] Log phase bacterial suspensions were adjusted to a final density of 5×10^5 cfu/mL in cation-adjusted Mueller-Hinton broth (Becton-Dickinson) and added to each well (98 μL). Microplates were incubated for 16-20 h at 35° C. in ambient air. The MIC of the compounds was defined as the lowest concentration of said compounds that prevented bacterial growth as read by visual inspection.

[12] = test system: E. coli 190317; experiment: MIC of compounds alone, broth microdilution; type: cell-based; settings: Escherichia coli; strain 190317 (TEM-1, SHV-12, CTX-M-15, OXA-1); read-out: MIC compounds of the invention alone
Experimental: as §3

[13] = test system: E. coli RGN238; experiment: MIC of compounds alone, broth microdilution; type: cell-based; settings: Escherichia coli, RGN238, read-out: MIC compounds of the invention alone
Experimental: as §3

[14] = test system: P. aeruginosa CIP107051; experiment: MIC of compounds alone, broth microdilution; type: cell-based; settings: Pseudomonas aeruginosa; strain CIP107051 (TEM-24); read-out: MIC compounds of the invention alone
Experimental: as §3

[15] = test system: E. coli 131119; experiment: microbe, parasite or virus in culture; type: cell-based; settings: Escherichia coli, 131119, read-out: MIC compounds of the invention alone
Experimental: as §3

[16] = test system: K. pneumoniae 6299; experiment: microbe, parasite or virus in culture; type: cell-based; settings: Klebsiella pneumoniae, 6299, read-out: MIC compounds of the invention alone
Experimental: as §3

[17] = test system: K. pneumoniae BAA-1898; experiment: microbe, parasite or virus in culture; type: cell-based; settings: Klebsiella pneumoniae, BAA1898, read-out: MIC compounds of the invention alone
Experimental: as §3

[18] = test system: P. aeruginosa CIP105250; experiment: microbe, parasite or virus in culture; type: cell-based; settings: Pseudomonas aeruginosa, CIP105250, read-out: MIC compounds of the invention alone
Experimental: as §3

[19] = test system: E. cloacae P99; experiment: MIC of ceftazidime alone and in combination with compounds (synergy), broth microdilution; type: cell-based; settings: MIC of ceftazidime with compound fixed at 4 μg/mL; strain P99 (AmpC)
[20] = test system: K. pneumoniae 6299; experiment: as above; type: cell-based; settings: MIC of ceftazidime with compound fixed at 4 μg/mL; strain 6299 (TEM-1, SHV-11, OXA-163)
Experimental: as §3

[21] = test system: K. pneumoniae BAA-1898; experiment: as above; type: cell-based; settings: MIC of ceftazidime with compound fixed at 4 μg/mL; strain BAA-1898 (TEM-1, SHV-11, SHV-12, KPC-2)
Experimental: as §3

[22] = test system: P. aeruginosa CIP105250; experiment: as above; type: cell-based; settings: MIC of ceftazidime with compound fixed at 4 μg/mL; strain CIP105250 (OXA-15)
Experimental: as §3

[23] = test system: P. aeruginosa CIP107051; experiment: as above; type: cell-based; settings: MIC of ceftazidime with compound fixed at 4 μg/mL; strain CIP107051 (TEM-24)
Experimental: as §3

[24] = test system: E. coli 190317; experiment: as above; type: cell-based; settings: MIC of ceftazidime with compound fixed at 4 μg/mL; strain 190317 (TEM-1, SHV-12, CTX-M-15, OXA-1)

T8 sequence (P24735 27-397): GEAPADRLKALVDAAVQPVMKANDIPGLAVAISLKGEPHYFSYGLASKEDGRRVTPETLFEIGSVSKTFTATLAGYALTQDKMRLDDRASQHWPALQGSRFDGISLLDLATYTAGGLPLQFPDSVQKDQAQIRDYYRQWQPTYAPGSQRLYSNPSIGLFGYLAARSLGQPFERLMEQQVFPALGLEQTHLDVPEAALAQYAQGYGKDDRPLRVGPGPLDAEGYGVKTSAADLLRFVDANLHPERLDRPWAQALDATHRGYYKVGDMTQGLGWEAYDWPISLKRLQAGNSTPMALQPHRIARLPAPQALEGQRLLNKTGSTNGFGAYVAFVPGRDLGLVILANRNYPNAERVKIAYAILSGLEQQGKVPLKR
T2 sequence (Q9F663 25-293 limits assumed): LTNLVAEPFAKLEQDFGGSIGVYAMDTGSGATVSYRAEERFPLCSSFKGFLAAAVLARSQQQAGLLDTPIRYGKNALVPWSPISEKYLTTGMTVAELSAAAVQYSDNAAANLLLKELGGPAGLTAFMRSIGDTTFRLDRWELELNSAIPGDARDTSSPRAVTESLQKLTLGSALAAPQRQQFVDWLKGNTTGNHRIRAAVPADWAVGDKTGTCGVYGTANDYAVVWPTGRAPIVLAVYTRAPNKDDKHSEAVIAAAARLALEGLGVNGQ
T4 sequence (Q06778 21-266): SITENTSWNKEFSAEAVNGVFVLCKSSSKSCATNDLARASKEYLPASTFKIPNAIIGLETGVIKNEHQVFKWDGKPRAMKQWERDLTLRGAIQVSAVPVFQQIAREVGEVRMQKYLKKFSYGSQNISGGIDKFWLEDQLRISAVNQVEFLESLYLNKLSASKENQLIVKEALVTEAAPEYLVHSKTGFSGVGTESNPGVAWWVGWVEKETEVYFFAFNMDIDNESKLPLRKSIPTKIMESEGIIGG
T3 sequence (P13661 26-276): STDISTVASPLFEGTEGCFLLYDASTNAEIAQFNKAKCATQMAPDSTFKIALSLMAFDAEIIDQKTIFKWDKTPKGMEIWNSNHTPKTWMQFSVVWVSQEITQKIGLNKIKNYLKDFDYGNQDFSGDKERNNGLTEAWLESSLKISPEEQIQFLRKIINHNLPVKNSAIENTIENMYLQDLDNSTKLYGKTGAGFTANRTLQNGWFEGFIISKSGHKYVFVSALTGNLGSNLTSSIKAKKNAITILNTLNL
T1 sequence (Q9EXV5 entry or part of it): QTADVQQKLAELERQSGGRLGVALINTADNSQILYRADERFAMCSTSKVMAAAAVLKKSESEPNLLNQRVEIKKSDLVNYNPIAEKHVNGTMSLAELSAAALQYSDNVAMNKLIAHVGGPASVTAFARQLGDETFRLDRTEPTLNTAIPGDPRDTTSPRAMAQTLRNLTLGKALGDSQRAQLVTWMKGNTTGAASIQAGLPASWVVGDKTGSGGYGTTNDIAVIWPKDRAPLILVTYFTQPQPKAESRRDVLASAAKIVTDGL
T9 sequence (P05364 21-381): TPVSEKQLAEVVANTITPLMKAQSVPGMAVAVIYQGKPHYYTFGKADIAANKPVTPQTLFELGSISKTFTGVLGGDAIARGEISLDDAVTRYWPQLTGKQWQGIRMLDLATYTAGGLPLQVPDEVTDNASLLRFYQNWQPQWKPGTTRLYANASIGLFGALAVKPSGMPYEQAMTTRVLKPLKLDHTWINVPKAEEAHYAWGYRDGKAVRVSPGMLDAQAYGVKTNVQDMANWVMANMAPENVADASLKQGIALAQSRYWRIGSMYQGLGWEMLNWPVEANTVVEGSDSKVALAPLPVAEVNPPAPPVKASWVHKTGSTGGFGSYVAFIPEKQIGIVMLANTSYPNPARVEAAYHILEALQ
T6 sequence (P0AD64 22-286): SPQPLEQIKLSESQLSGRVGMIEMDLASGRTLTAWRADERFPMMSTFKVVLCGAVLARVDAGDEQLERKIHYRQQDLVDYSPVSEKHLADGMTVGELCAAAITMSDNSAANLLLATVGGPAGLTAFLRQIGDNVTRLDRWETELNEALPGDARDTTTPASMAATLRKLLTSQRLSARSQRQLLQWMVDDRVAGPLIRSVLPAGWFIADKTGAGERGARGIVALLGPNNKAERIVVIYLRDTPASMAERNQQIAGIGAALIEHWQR
T5 sequence (Q6XEC0 23-265 limits assumed): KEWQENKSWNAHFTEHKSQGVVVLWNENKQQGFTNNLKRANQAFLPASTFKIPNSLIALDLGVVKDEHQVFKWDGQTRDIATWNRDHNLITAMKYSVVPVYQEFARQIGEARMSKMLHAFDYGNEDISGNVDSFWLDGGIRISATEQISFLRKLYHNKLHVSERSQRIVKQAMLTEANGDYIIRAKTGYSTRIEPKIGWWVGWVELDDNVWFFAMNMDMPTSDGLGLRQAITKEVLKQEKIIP
T7 sequence (P62593 24-286 limits assumed): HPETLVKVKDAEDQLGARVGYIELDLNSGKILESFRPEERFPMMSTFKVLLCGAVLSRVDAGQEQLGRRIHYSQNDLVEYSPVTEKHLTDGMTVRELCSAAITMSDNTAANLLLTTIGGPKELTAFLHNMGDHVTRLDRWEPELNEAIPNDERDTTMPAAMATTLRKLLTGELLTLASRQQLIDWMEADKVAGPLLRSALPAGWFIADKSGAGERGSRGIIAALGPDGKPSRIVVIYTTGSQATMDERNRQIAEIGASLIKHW
T10 sequence (Q51574 22-275): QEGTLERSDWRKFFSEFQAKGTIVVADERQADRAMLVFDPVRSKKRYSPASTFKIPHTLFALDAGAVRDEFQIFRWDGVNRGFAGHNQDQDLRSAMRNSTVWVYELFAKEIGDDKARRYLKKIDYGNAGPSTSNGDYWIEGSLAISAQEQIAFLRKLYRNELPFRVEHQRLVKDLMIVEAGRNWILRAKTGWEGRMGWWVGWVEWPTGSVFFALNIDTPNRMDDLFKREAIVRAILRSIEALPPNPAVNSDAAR

SMILES: NC(=O)CON=C1C[C@@H](C(N)=O)N2C[C@@H]1N(OS(=O)(=O)[O-])C2=O.[Na+] (mixture of isomers) [Example 3, sodium [(2S, 5S)-4-(2-amino-2-oxo-ethoxy)imino-2-carbamoyl-7-oxo-1,6-diazabicyclo[3.2.1]octan-6-yl] sulfate]
- IC50 [1]: 2 nM
- IC50 [2]: 33 nM
- IC50 [3]: 17 nM
- IC50 [4]: 48 nM
- IC50 [5]: 5.7 nM
- IC50 [6]: 4.6 nM
- IC50 [7]: 3 nM
- IC50 [8]: 220 nM
- IC50 [9]: 7.4 nM
- IC50 [10]: 1.6 nM
- MIC [11]: > 32 µg/mL
- MIC [12]: > 32 µg/mL
- MIC [13]: > 32 µg/mL
- MIC [14]: > 32 µg/mL
- MIC [15]: > 32 µg/mL
- MIC [16]: > 32 µg/mL
- MIC [17]: > 32 µg/mL
- MIC [18]: > 32 µg/mL
- MIC, combination of CAZ and compounds of the invention at 4 μg/mL [19]: 32 µg/mL
- MIC, combination of CAZ and compounds of the invention at 4 μg/mL [20]: 4 µg/mL
- MIC, combination of CAZ and compounds of the invention at 4 μg/mL [21]: 64 µg/mL
- MIC, combination of CAZ and compounds of the invention at 4 μg/mL [22]: 32 µg/mL
- MIC, combination of CAZ and compounds of the invention at 4 μg/mL [23]: 32 µg/mL
- MIC, combination of CAZ and compounds of the invention at 4 μg/mL [24]: ≤0.125 µg/mL

SMILES: CNC(=O)CON=C1C[C@@H](C(=O)OC)N2C[C@@H]1N(OS(=O)(=O)[O-])C2=O.[Na+] (mixture of isomers) [Example 1, sodium [(2S,5S)-2-methoxycarbonyl-4-[2-(methylamino)-2-oxo-ethoxy]imino-7-oxo-1,6-diazabicyclo[3.2.1]octan-6-yl] sulfate]
- IC50 [1]: 5.4 nM
- IC50 [2]: 7.8 nM
- IC50 [3]: 80 nM
- IC50 [4]: 4.1 nM
- IC50 [5]: 0.51 nM
- IC50 [6]: 1.3 nM
- IC50 [7]: 3.2 nM
- IC50 [8]: 37 nM
- IC50 [9]: 4.1 nM
- IC50 [10]: 0.65 nM
- MIC [11]: > 32 µg/mL
- MIC [12]: > 32 µg/mL
- MIC [13]: > 32 µg/mL
- MIC [14]: > 32 µg/mL
- MIC [15]: > 32 µg/mL
- MIC [16]: > 32 µg/mL
- MIC [17]: > 32 µg/mL
- MIC [18]: > 32 µg/mL
- MIC, combination of CAZ and compounds of the invention at 4 μg/mL [19]: 64 µg/mL
- MIC, combination of CAZ and compounds of the invention at 4 μg/mL [20]: 32 µg/mL
- MIC, combination of CAZ and compounds of the invention at 4 μg/mL [21]: 128 µg/mL
- MIC, combination of CAZ and compounds of the invention at 4 μg/mL [22]: 64 µg/mL
- MIC, combination of CAZ and compounds of the invention at 4 μg/mL [23]: 64 µg/mL
- MIC, combination of CAZ and compounds of the invention at 4 μg/mL [24]: 4 µg/mL
